Experimental data as given in patent US20220039395A1, “INSECT CONTROL AGENTS” (priority 2018, published 2022).
Entries after “also recorded” stand apart in the source; their conditions may differ. Ends that are not written are not given here. Alexa‑488‑C5‑maleimide = fluorescent Alexa 488 label coupled to Cys via C5-maleimide

Experiments:
[1] = system: M. persicae gut, brain and ventral nerve cord; test: Receptor mapping assay using fluorescently labelled neuropeptides; type: binding, Myzus persicae; details: labelled neuropeptide 10^−7 M; for site of binding in the gut: displaced by excess unlabelled peptide
Protocol: (§1) Aphids were cold anesthetized and the tissue of interest dissected out in a 1:1 solution of Schneider's insect medium and optimized saline.^7,42 The dissected tissue was mounted on a poly-L-lysine-covered 35 mm glass bottom dish containing 1:1 saline. Nuclei were stained via incubation in DAPI (1 μg ml^−1) and a baseline image taken to determine the level of autofluorescence and adjust exposure settings accordingly. All images were recorded on an inverted confocal microscope (Zeiss LSM 510 Meta). A labelled neuropeptide (10^−7 M) was subsequently added and the sample imaged. The concentration of 10^−7 M was chosen for labelled neuropeptides because it represents the minimal concentration required to produce a saturated receptor response, thereby optimizing the conditions for optical detection of ligand-receptor complexes.^7 Following imagining, unlabelled neuropeptide (10^−5 M) was added to the sample and a time-lapse experiment set up to determine if the unlabelled neuropeptide outcompeted the labelled neuropeptide, thus reaffirming the detection of the ligand-receptor complexes. Images were collected every 30 s for a duration of 20-30 m. All images were exported as JPEG files and subsequently viewed in FIJI and Microsoft Illustrator.

[2] = system: M. rosae gut, brain and ventral nerve cord; test: as above; type: binding, Macrosiphum rosae; details: labelled neuropeptide 10^−7 M; for site of binding in the gut: displaced by excess unlabelled peptide
Protocol: as §1

[3] = system: Aphids; test: Feeding with peptides in artificial diet, mortality without other stress; type: in vivo, Myzus persicae; details: for Dead (48 h) / Dead (72 h) / Dead (96 h) / Dead (120 h) / Dead (144 h): artificial diet supplemented with peptide; for effect on mortality in the absence of additional stressors: no additional stress conditions
Protocol: A standard artificial diet for M. persicae was produced as described in Van Emden (2009) and provided the basal diet to which neuropeptide analogues were added for screening purposes. Neuropeptide analogues were diluted individually in the artificial diet to a pre-determined recommended concentration as follows: 1895 (3.5×10^−5 M) and 2019 (2.0×10^−5 M).
Feeding apparatus were constructed using a set-up developed by Sadeghi et al (2009). For this, a piece of Parafilm was stretched over a Plexiglas ring (h=4 cm, Ø=3 cm) and 100 μl of the artificial diet containing the desired neuropeptide analogue was pipette onto the Parafilm membrane. A second piece of Parafilm, stretched to 4 times the original thickness, was stretched over the original layer, sandwiching the artificial diet between two layers of Parafilm. A strip of Parafilm was wrapped around the circumference of the Plexiglas ring, sealing in the diet. A plastic ring (h=1.2 cm, Ø=3.4 cm) was subsequently placed over the Parafilm layer, creating a walled chamber in which to house test aphids in contact with the Parafilm layer containing the artificial diet. Finally, a small Petri dish (h=1 cm, Ø=3.6 cm), modified for ventilation with net cloth, was placed on top of each feeding apparatus to prevent aphid escape.
To obtain aphids for use in experiments, reproducing anholocyclic adults were placed on individual excised leaves of Chinese cabbage at densities of 5 adults per leaf and allowed to reproduce for 24 h. The stem of each excised leaf was held within a 0.5 mL Eppendorf tube containing water via a punctured hole in the Eppendorf lid, and placed individually within a microcage (L=4 cm, Ø=9.5 cm). Following 24 h, adults were removed and resultant first instar nymphs (<1 day old and synchronised in age to within 24 h) retained. Nymphs were allowed to develop on the Chinese cabbage for 5 days. On day 5, (3rd instar) nymphs were transferred onto the artificial diet containing a neuropeptide analogue at densities of 1 per feeding chamber and monitored daily until death. Aphids were transferred to fresh artificial diet (containing neuropeptide analogue) every 5 days. Life history traits recorded include age at first reproduction, number of nymphs produced per 24 h period, and lifespan. From these parameters, lifetime fecundity and daily fecundity were calculated. Control groups were set up involving aphids reared on the host plant, an artificial diet without a neuropeptide analogue, and an artificial diet containing the native CAPA neuropeptide.
Aphids were reared on artificial diet, alone or supplemented with peptide 2129, 2315, 2316 or 2320. A control group (no test peptide) was reared on a host plant. No other stress conditions were applied.
For peptides 2315, 2316 and 2320, mortality was assessed at 48, 72, 96, 120 and 144 hours. A group of 9 or 10 insects was used for each time point, and all experiments were performed at least 4 times.

[4] = system: aphid; test: Topical application of peptides to aphid abdomen by microinjector, mortality; type: in vivo; details: 9 nl of 1×10^−5 M peptide in Armid FMPC applied topically to abdomen
Protocol: For peptides 2315, 2320 and 2125, peptides were diluted individually in an Armid FMPC formulation (AkzoNobel Surface Chemistry, Stenungsund, Sweden) to concentration of 1×10^−5 M. Using a Nanoject II Auto-Nanoliter micro-injector, 9 nl of the peptide solution was applied topically to the abdomen of a pre-reproductive adult aphid, coating the cuticle in the solution. Aphids were returned to the host plant and allowed to recover for 24 h before use in experiments. Control aphids were topically applied with 9 nl of the Armid FMPC formulation and, once again, allowed to recover for 24 h on the host plant before use in experiments.
Peptides were applied topically to insect abdomen by microinjector and the insects returned to the plant. Mortality was assessed after 24 hours. Separate controls were performed for each experiment. A group of 9 or 10 insects was used for each time point, and all experiments were performed 3 times.

[5] = system: Myzus persicae; test: Topical application by spraying, Potter Spray Tower; type: in vivo; details: 3000 μl, positive control 28.3 μM, counted 48 hours post spray
Protocol: (§2) Aphids were exposed to test peptides in the absence of additional external stress conditions.
(§3) Brassica rapa (Chinese cabbage; Wong Bok) were infested with 30 adult Myzus persicae aphids per plant. Aphids were left at least 2 hours to settle and begin feeding from the host plant.
Spraying took place inside a designated spray room. To ensure spray tracking, all sprayed solutions had amaranth dye added.
Potter Spray Tower (Burkard Manufacturing) was ‘primed’ by spraying 1000 μl of liquid coating the inside of the tower. Two controls were used:
i) vehicle spray only (Croda ATPlus UEP 100 LQ-(CQ) 0.1% v/v); and ii) Imidacloprid positive control (28.3 μM).
Imidacloprid was always applied last and via a second, separate, Potter Tower, to prevent any possibility of stray pesticide being left inside the tower and contaminating a test peptide-applied plant.
Spray volumes for all solutions were 3000 μl. The 6.9 mm spray head was loaded with 3000 μl of a 1×10^−5M peptide solution diluted in ATPlus 0.1%. After spraying was completed the plant was allowed to rest on the spray platform for 30 seconds to allow settling of the sprayed chemical.
For this experiment there were three test conditions: 1895 alone (1×10^−5M); 2129 alone (1×10^−5M); and a simultaneous co-application of 1895+2129 together (1×10^−5M of each peptide).
(§4) Post peptide application, each condition was placed into its own individual Bugdorm (Watkins and Doncaster, 44545), to prevent repulsed or displaced aphids moving from one condition to another. Numbers of alive and dead aphids on the plant were counted 48 hours post spray, and the presence of any fresh nymphs noted. Plants were watered prior to spraying but not afterwards to eliminate the possibility of drowning any aphids present or washing off the sprayed liquid.
Post spraying, the spray head was filled with over 3000 μl of 70% ethanol and sprayed until empty. The spray head was carefully removed and rinsed with 70% ethanol as some amaranth dye was observed on the spray head. […]

[6] = system: Myzus persicae; test: Topical application by spraying, air brush; type: in vivo; details: 750 μl, positive control 28.3 μM, counted 48 hours post spray
Protocol: as §2, §3
Spraying took place inside an externally vented fume cupboard. […] To ensure spray tracking, all sprayed solutions had amaranth dye added, allowing the full surface of the plant to be evenly coated with the aerosolised compound.
The plants to be sprayed were placed inside a plastic disposal bag, inside the fume cupboard. This was used to control the area exposed to the aerosolised liquid, to avoid extensive spraying and cleaning inside the fume cupboard. The bag was further lined with absorbent paper towel to again help contain and control spray.
Each experiment had three controls:
i) no vehicle or peptide air spray only, negative control to assess effect of spraying on aphid ability to remain attached to the plant; ii) vehicle spray only (Tween 24 0.1%); and iii) Imidacloprid positive control (28.3 μM).
Imidacloprid was always applied last to prevent any possibility of stray pesticide being left inside the disposal bag and contaminating a test peptide applied plant.
Spray volumes for all solutions for this experiment 750 μl.
A clean air brush (ABEST AC06k30) was loaded with 750 μl of peptide solution diluted in […] 0.1% vehicle. For this experiment there were three test conditions: 1895 alone (1×10^−5M); 2129 alone (1×10^−5M); and a simultaneous co-application of 1895+2129 together (1×10^−5M of each peptide). During application, the air brush was held within the plastic bag and the compressor turned on. The air brush was then gently sprayed back and forth across the plant. […]
as §4, with “Plants were watered prior to spraying but not afterwards to eliminate the possibility of drowning any aphids present or washing off the sprayed liquid.” left out

Molecule | staining of brain and ventral nerve cord (VNC) [1] | site of binding in the gut [1] | staining of brain and ventral nerve cord (VNC) [2] | site of binding in the gut [2] | Dead (48 h) [3] | Dead (72 h) [3] | Dead (96 h) [3] | Dead (120 h) [3] | Dead (144 h) [3] | effect on mortality in the absence of additional stressors [3] | effect on mortality in the absence of additional stressors ([3]; listed as 2135) | Dead (24 h) [4] | % Lethality [5] | % Lethality [6]
TMR-C5-maleimide-CGANMGLYAFPRVamide (TMR-C5-maleimide on Cys; C-terminal amide; labelled CAPA-1) [CAPA-1-F] | no sites of receptor binding in either the brain or the VNC | bind to the circular and longitudinal muscles of the aphid gut | no sites of receptor binding in either the brain or the VNC | bind to the circular and longitudinal muscles of the aphid gut |  |  |  |  |  |  |  |  |  | 
ASG[βhL]VAFPRV-NH2 [compound 2315] |  |  |  |  | 45.0% | 60.0% | 70.0% | 77.5% | 80.0% | increase mortality in the absence of additional stressors | increase mortality in the absence of additional stress conditions | 33.3% |  | 
Alexa-488-C5-maleimide-CNSVVLGKKQRFHSWGamide (C(Alexa‑488‑C5‑maleimide)NSVVLGKKQRFHSWG-NH2) [kinin-F] | staining apparent in a bilateral symmetrical ‘ladder’ of neuronal clusters | bind to the circular and longitudinal muscles of the aphid gut | no specific staining | bind to the circular and longitudinal muscles of the aphid gut |  |  |  |  |  |  |  |  |  | 
ASG[βhL]V[βA]FPRV-NH2 [compound 2320] |  |  |  |  | 70% | 80% | 80% | 80% | 85% | increase mortality in the absence of additional stress conditions; also recorded: increase mortality in the absence of additional stressors |  | 33.3% |  | 
O=[N+]([O-])NC1=NCCN1Cc1ccc(Cl)nc1 [Imadocloprid, Imidacloprid, reference compound] |  |  |  |  |  |  |  |  |  |  |  |  | 93% | 100%
